Results: patent US20250205275A1, “POLYMERIC IRON BINDING COMPOSITIONS AND METHODS OF USE FOR TREATING DISEASES ASSOCIATED WITH EXCESS DAMAGING REACTIVE IRON” (Fe Pharmaceuticals (Canada) Inc., priority 2022, published 2025)
Marks after values point to notes of the source that are not given here.

Experiments:
microbial growth = conditions: cited from earlier work
Gram negative bacteria = conditions: cited from earlier work
Gram positive bacteria = conditions: cited from earlier work
[1] = cited from earlier work
fungi = conditions: cited from earlier work
[2] = Iron(III) binding affinity by NaOH titration with UV-vis spectra (HypSpec2014); conditions: 25° C.
Procedure: The titrations were carried out under a wet nitrogen atmosphere to avoid concentration changes due to evaporation. Aliquots of each complex solution were taken periodically during the titration and the UV-vis spectra of the aliquots were collected as a batch once the titration was completed. The pH range studied spanned the equilibrium between bis and tris coordination for the ligands as these are the only two species expected at physiological pH. For Fe3-DIBI the spectra were collected 24 h after collecting the batch of aliquots. The spectra were processed using HypSpec2014 to determine the iron(III) binding affinity of […] and deferiprone (DFP) as reference as summarized in Table 7.

[3] = Resistance of chelator-bound iron(III) to chemical reduction by dithionite; type: physicochemical; conditions: 0.1 M MOPS, pH 7.4
From the text: Chemical reduction of iron from Fe(III) to Fe(II) is part of the chemical reductive cycling of iron that drives ROS production in and around cells and also facilities removal of iron from intracellular stores for use elsewhere in the body. Generally iron in extracellular compartments of the body is in the Fe(III) form this helping to limit iron related toxic reactions as free Fe(II) would quickly oxidize to Fe(III) and this could drive, for example, ROS production. Thus, the relative ability of an iron chelator to hold Fe(III) and resist its reduction to Fe(II) would have benefits. Correspondingly, the relative chemical reducibility of Fe(III) to Fe(II) as bound by deferiprone, MAHMP and DIBI was tested. The different iron loaded chelators were first prepared so that iron only sufficient to ensure initial presence of fully coordinated iron(III) was used, i.e. a ratio of three chelator molecules of either deferiprone or MAHMP to each iron(III) atom present. DIBI with its measured MAHMP content was also similarly loaded with iron added just sufficient to satisfy its MAHMP iron binding sites on a similar basis. The iron-chelates were then reacted with dithionite (DT, [S2O4]^2−) a chemical reductant for iron and the relative changes in absorbance intensity at 460 nm was used to monitor for iron reduction with results as shown in FIG. 2.

ferroptosis = conditions: cited from earlier work
[4] = in vivo; cited from earlier work
[5] = system: cells challenged with high-glucose; conditions: cited from earlier work
[6] = Approx, based on close analogue 36 and FBS0701; cited from earlier work
[7] = clinical trials; cited from earlier work
ferroportin = biological target: T1, ferroportin (Homo sapiens, UniProt Q9NP59); conditions: clinical testing, advanced to phase II; cited from earlier work
T1 sequence (Q9NP59 1-571): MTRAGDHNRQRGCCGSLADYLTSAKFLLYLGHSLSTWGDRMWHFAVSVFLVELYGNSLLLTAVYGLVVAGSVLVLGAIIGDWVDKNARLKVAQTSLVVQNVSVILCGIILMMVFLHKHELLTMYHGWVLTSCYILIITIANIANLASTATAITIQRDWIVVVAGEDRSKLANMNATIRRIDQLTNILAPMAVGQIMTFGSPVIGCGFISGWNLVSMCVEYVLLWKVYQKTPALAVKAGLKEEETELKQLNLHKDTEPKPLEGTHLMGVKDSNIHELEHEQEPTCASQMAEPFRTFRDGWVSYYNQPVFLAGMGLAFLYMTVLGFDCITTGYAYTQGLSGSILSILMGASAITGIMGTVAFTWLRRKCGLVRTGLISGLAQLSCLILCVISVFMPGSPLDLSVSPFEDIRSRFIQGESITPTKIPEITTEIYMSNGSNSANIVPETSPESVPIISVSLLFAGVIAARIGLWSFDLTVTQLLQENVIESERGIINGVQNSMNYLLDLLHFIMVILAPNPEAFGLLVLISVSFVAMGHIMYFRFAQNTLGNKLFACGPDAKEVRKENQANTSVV

[8] = doxorubicin-induced mouse model; cited from earlier work

SMILES	Antimicrobial activity (microbial growth)	MIC Gram negative bacteria (Gram negative bacteria)	MIC Gram positive bacteria (Gram positive bacteria)	Hydrophobicity/ hydrophilicity log P [1]	MIC fungi (fungi)	cell viability [5]	also measured
O=C(O)c1ccc(-n2nc(-c3ccccc3O)nc2-c2ccccc2O)cc1 [Deferasirox]	Low	133^m μM	21^l μM	4.3 ^b	67^p μM	–	–
Cc1c(O)c(=O)ccn1C [Deferiprone]	Very Low	287^k μM	575^e μM	−0.8 ^b	1151^n μM	–	Log β1 iron binding formation constant [2]: 15.01(1); Log β2 iron binding formation constant [2]: 27.5(7); Log β3 iron binding formation constant [2]: 36.7(1); reduction of bound iron(III) by dithionite (intensity of 460 nm band) [3]: readily reduced
CC(=O)N(O)CCCCCNC(=O)CCC(=O)N(O)CCCCCNC(=O)CCC(=O)N(O)CCCCCN [Deferoxamine]	Poor,	>913^k μM	>913^k μM	−3 ^b	>228^n μM	rescued cell viability	effect on ferroptosis (ferroptosis): suppression; infections in test animals [4]: fatal infections
C=C(C)C(=O)NCCn1ccc(=O)c(O)c1C [MAHMP]	–	–	–	–	–	–	Log β1 iron binding formation constant [2]: 15.01(1); Log β2 iron binding formation constant [2]: 27.9(1); Log β3 iron binding formation constant [2]: 38.22(6); reduction of bound iron(III) by dithionite (intensity of 460 nm band) [3]: The same reaction was observed
COCCOCCOc1ccc(C2=N[C@@](C)(C(=O)O)CS2)c(O)c1 [SP-420]	–	–	–	−0.89	–	–	Fe binding constant log K [6]: 33.1-33.4; renal toxicity [7]: undesirable renal toxicity
O=C(NCc1ncccc1F)c1coc(CCNCCc2nc3ccccc3[nH]2)n1 [VIT-2763]	–	–	–	–	–	–	lowering serum iron levels (ferroportin): good potential for lowering serum iron levels; toxicity (ferroportin): low toxicity
O=C([O-])CN(CC(=O)[O-])CC(=O)[O-].[Fe+3] [ferric-nitriloacetate (NTA), ferric-nitriloacetate]	–	–	–	–	–	–	effect on ferroptosis (ferroptosis): promote ferroptosis and renal carcinoma
CCOC(=O)c1ccc(NC2CCCCC2)c(N)c1 [ferrostatin-1]	–	–	–	–	–	rescued cell viability	cardiac function [8]: improved cardiac function; mortality [8]: reduced mortality
O=c1c(O)c(-c2ccc(O)c(O)c2)oc2cc(O)cc(O)c12 [quercetin]	–	–	–	–	–	rescued cell viability	–
